According to publication PMC7490411 (Signal Transduction and Targeted Therapy, 2020):

Tests used:
Type in all cases: binding
[1] = target: T1, BTK (Homo sapiens, UniProt Q06187); assay: target-engagement assay with biotinylated probe CHMFL-BTK-85B in REC-1 cell; details: 2 h, 1 μM
T1 construct: purchased Invitrogen (Carlsbad, CA, USA)
Protocol: Cell lysates from REC-1 cells were treated with different concentrations of covalent inhibitor CHMFL-BTK-85 on ice for 2 hours. 1 µM biotinylated covalent probe (CHMFL-BTK-85B) was then added and lysates were incubated for another 2 hours. Uninhibited BTK was then captured by adding 50 µl Streptavidin agarose resin suspensions (Pierce) followed by an incubation for 1 hour. The resin was then spun down, washed briefly with 1X PBS buffer, and then resuspended in protein sample buffer for Western blot analysis.

[2] = tested on: ABL1(F317L)-nonphosphorylated; assay: KINOMEscan; details: 1000 nM
[3] = tested on: ABL1(M351T)-phosphorylated; assay: KINOMEscan; details: 1000 nM
[4] = tested on: ABL1(Y253F)-phosphorylated; assay: KINOMEscan; details: 1000 nM
[5] = tested on: ABL1-phosphorylated; assay: KINOMEscan; details: 1000 nM
[6] = tested on: ADCK3; assay: KINOMEscan; details: 1000 nM
[7] = tested on: AKT3; assay: KINOMEscan; details: 1000 nM
[8] = tested on: ALK(L1196M); assay: KINOMEscan; details: 1000 nM
[9] = tested on: AURKC; assay: KINOMEscan; details: 1000 nM
[10] = tested on: BUB1; assay: KINOMEscan; details: 1000 nM
[11] = tested on: CDC2L2; assay: KINOMEscan; details: 1000 nM
[12] = tested on: CDKL2; assay: KINOMEscan; details: 1000 nM
[13] = tested on: CHEK2; assay: KINOMEscan; details: 1000 nM
[14] = tested on: CLK1; assay: KINOMEscan; details: 1000 nM
[15] = tested on: DAPK2; assay: KINOMEscan; details: 1000 nM
[16] = tested on: DCAMKL1; assay: KINOMEscan; details: 1000 nM
[17] = tested on: DMPK; assay: KINOMEscan; details: 1000 nM
[18] = tested on: DMPK2; assay: KINOMEscan; details: 1000 nM
[19] = tested on: DRAK1; assay: KINOMEscan; details: 1000 nM
[20] = tested on: EGFR(G719C); assay: KINOMEscan; details: 1000 nM
[21] = tested on: EPHA7; assay: KINOMEscan; details: 1000 nM
[22] = tested on: ERBB2; assay: KINOMEscan; details: 1000 nM
[23] = tested on: ERBB4; assay: KINOMEscan; details: 1000 nM
[24] = tested on: ERK2; assay: KINOMEscan; details: 1000 nM
[25] = tested on: ERN1; assay: KINOMEscan; details: 1000 nM
[26] = tested on: FAK; assay: KINOMEscan; details: 1000 nM
[27] = tested on: FLT3(K663Q); assay: KINOMEscan; details: 1000 nM
[28] = tested on: HUNK; assay: KINOMEscan; details: 1000 nM
[29] = tested on: IKK-beta; assay: KINOMEscan; details: 1000 nM
[30] = tested on: JAK2(JH1domain-catalytic); assay: KINOMEscan; details: 1000 nM
[31] = tested on: KIT(A829P); assay: KINOMEscan; details: 1000 nM
[32] = tested on: MAP4K2; assay: KINOMEscan; details: 1000 nM
[33] = tested on: MAP4K3; assay: KINOMEscan; details: 1000 nM
[34] = tested on: MARK1; assay: KINOMEscan; details: 1000 nM
[35] = tested on: MAST1; assay: KINOMEscan; details: 1000 nM
[36] = tested on: MKK7; assay: KINOMEscan; details: 1000 nM
[37] = tested on: MRCKA; assay: KINOMEscan; details: 1000 nM
[38] = tested on: MST3; assay: KINOMEscan; details: 1000 nM
[39] = tested on: NEK1; assay: KINOMEscan; details: 1000 nM
[40] = tested on: NEK5; assay: KINOMEscan; details: 1000 nM
[41] = tested on: NEK7; assay: KINOMEscan; details: 1000 nM
[42] = tested on: PAK6; assay: KINOMEscan; details: 1000 nM
[43] = tested on: PCTK1; assay: KINOMEscan; details: 1000 nM
[44] = tested on: PHKG1; assay: KINOMEscan; details: 1000 nM
[45] = tested on: PIP5K1A; assay: KINOMEscan; details: 1000 nM
[46] = tested on: RET(M918T); assay: KINOMEscan; details: 1000 nM
[47] = tested on: RSK3(Kin.Dom.1-N-terminal); assay: KINOMEscan; details: 1000 nM
[48] = tested on: SLK; assay: KINOMEscan; details: 1000 nM
[49] = tested on: SRPK2; assay: KINOMEscan; details: 1000 nM
[50] = tested on: TAOK1; assay: KINOMEscan; details: 1000 nM
[51] = tested on: TEC; assay: KINOMEscan; details: 1000 nM
[52] = tested on: TLK1; assay: KINOMEscan; details: 1000 nM
[53] = tested on: TNNI3K; assay: KINOMEscan; details: 1000 nM
[54] = tested on: TSSK3; assay: KINOMEscan; details: 1000 nM
[55] = tested on: TTK; assay: KINOMEscan; details: 1000 nM
[56] = tested on: VRK2; assay: KINOMEscan; details: 1000 nM

T1 sequence (Q06187 whole entry): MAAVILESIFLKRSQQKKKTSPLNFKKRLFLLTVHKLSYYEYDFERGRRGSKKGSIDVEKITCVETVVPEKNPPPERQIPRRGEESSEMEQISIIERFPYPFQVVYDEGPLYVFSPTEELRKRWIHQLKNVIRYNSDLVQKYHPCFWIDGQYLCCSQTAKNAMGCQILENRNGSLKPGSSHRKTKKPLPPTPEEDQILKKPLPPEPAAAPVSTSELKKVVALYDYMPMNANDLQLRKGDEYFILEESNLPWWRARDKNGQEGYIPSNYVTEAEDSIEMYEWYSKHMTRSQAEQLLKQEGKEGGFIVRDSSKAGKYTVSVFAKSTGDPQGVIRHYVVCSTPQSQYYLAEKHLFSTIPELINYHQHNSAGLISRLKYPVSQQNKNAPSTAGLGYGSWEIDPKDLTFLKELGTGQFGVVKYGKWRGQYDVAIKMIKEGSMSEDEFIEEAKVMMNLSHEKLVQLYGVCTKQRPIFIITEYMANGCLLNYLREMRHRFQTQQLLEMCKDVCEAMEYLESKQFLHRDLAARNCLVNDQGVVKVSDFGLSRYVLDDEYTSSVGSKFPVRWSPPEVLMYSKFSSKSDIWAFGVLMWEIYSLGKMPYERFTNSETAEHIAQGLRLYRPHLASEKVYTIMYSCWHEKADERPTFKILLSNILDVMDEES

SMILES: C=CC(=O)Nc1cc(Nc2cc(-c3cccc(NC(=O)c4cc5c(s4)CCCC5)c3C)cn(C)c2=O)ccc1N1CCN(CC)CC1 [CHMFL-BTK-85]
- covalent labelling of BTK in competition with CHMFL-BTK-85B [1]: almost completely covalently label all of the available BTK
- Percent Control [2]: 100%
- Percent Control [3]: 100%
- Percent Control [4]: 83%
- Percent Control [5]: 72%
- Percent Control [6]: 78%
- Percent Control [7]: 97%
- Percent Control [8]: 100%
- Percent Control [9]: 100%
- Percent Control [10]: 100%
- Percent Control [11]: 89%
- Percent Control [12]: 98%
- Percent Control [13]: 94%
- Percent Control [14]: 88%
- Percent Control [15]: 100%
- Percent Control [16]: 100%
- Percent Control [17]: 92%
- Percent Control [18]: 100%
- Percent Control [19]: 97%
- Percent Control [20]: 81%
- Percent Control [21]: 100%
- Percent Control [22]: 99%
- Percent Control [23]: 91%
- Percent Control [24]: 91%
- Percent Control [25]: 100%
- Percent Control [26]: 99%
- Percent Control [27]: 100%
- Percent Control [28]: 100%
- Percent Control [29]: 100%
- Percent Control [30]: 100%
- Percent Control [31]: 92%
- Percent Control [32]: 100%
- Percent Control [33]: 97%
- Percent Control [34]: 100%
- Percent Control [35]: 100%
- Percent Control [36]: 99%
- Percent Control [37]: 100%
- Percent Control [38]: 66%
- Percent Control [39]: 95%
- Percent Control [40]: 100%
- Percent Control [41]: 96%
- Percent Control [42]: 100%
- Percent Control [43]: 100%
- Percent Control [44]: 94%
- Percent Control [45]: 96%
- Percent Control [46]: 78%
- Percent Control [47]: 85%
- Percent Control [48]: 95%
- Percent Control [49]: 100%
- Percent Control [50]: 94%
- Percent Control [51]: 100%
- Percent Control [52]: 99%
- Percent Control [53]: 93%
- Percent Control [54]: 100%
- Percent Control [55]: 54%
- Percent Control [56]: 94%
